Numbered stars: 1 amine (or outer) side, 2 acyl side, 3 side chain; on linkers, the order of the positions; unused ones are H or OH. Peptide text beside a SMILES is read from it. * marks the point of attachment. C20 diacid = O=C(O)CCCCCCCCCCCCCCCCCCC(=O)*; C18 diacid = O=C(O)CCCCCCCCCCCCCCCCC(=O)*; γGlu = O=C(O)[C@H](CCC(=O)[*:2])N[*:1]
Test: Assay (IV) determination of solubility
Type: physicochemical
Experimental: Assay (IV)—Determination of Solubility
The mimylin peptide was dissolved in water at ˜500 nmol/ml and mixed 1:1 with a series of buffers (100 mM glycylglycine pH 3.0, 100 mM glycylglycine pH 4.0, 100 mM glycylglycine pH 5.0, 100 mM bistrispropane pH 6.0, 100 mM bistrispropane pH 6.5, 100 mM bistrispropane pH 7.0, 100 mM bistrispropane pH 7.5, 100 mM bistrispropane pH 8.0).

| SMILES | Solubility (pH 3.0) | Solubility (pH 4.0) | Solubility (pH 5.0) | Solubility (pH 6.0) | Solubility (pH 6.5) | Solubility (pH 7.0) | Solubility (pH 7.5) | Solubility (pH 8.0) |
| --- | --- | --- | --- | --- | --- | --- | --- | --- |
| CC(C)C[C@H](NC(=O)[C@H](C)NC(=O)[C@H](C)NC(=O)[C@@H](NC(=O)[C@H](CO)NC(=O)[C@H](CC(C)C)NC(=O)[C@H](CCC(=O)O)NC(=O)[C@H](CO)NC(=O)[C@H](C)NC(=O)CC[C@H](NC(=O)CCCCCCCCCCCCCCCCCCC(=O)O)C(=O)O)[C@@H](C)O)C(=O)NCC(=O)N[C@@H](CCCNC(=N)N)C(=O)N[C@@H](CC(C)C)C(=O)N[C@@H](CO)C(=O)N[C@@H](C)C(=O)N[C@@H](CCC(=O)O)C(=O)N[C@@H](CC(C)C)C(=O)N[C@@H](Cc1cnc[nH]1)C(=O)N[C@@H](CCC(=O)O)C(=O)N[C@@H](CC(C)C)C(=O)N[C@@H](C)C(=O)N[C@H](C(=O)N[C@@H](CC(C)C)C(=O)N1CCC[C@H]1C(=O)N[C@@H](CCCNC(=N)N)C(=O)N[C@H](C(=O)N[C@@H](CCC(=O)O)C(=O)N[C@H](C(=O)NCC(=O)N[C@@H](CO)C(=O)NCC(=O)N[C@@H](CO)C(=O)N[C@@H](CO)C(N)=O)[C@@H](C)O)[C@@H](C)O)[C@@H](C)O [compound 63, [N-terminal(C20 diacid-gGlu), des1, 30S, 31G, 33S]mimylin] ({C20 diacid-γGlu}-ASELSTAALGRLSAELHELATLPRTETGSGSS-NH2) | ≧200 μM | ≧200 μM | ≧200 μM | ≧200 μM | ≧200 μM | ≧200 μM | ≧200 μM | ≧200 μM |
| CC(C)C[C@H](NC(=O)[C@H](C)NC(=O)[C@H](C)NC(=O)[C@@H](NC(=O)[C@H](CO)NC(=O)[C@H](CC(C)C)NC(=O)[C@H](CCC(=O)O)NC(=O)[C@H](CO)NC(=O)[C@H](C)NC(=O)CC[C@H](NC(=O)CCCCCCCCCCCCCCCCCCC(=O)O)C(=O)O)[C@@H](C)O)C(=O)NCC(=O)N[C@@H](CCCNC(=N)N)C(=O)N[C@@H](CC(C)C)C(=O)N[C@@H](CO)C(=O)N[C@@H](C)C(=O)N[C@@H](CCC(=O)O)C(=O)N[C@@H](CC(C)C)C(=O)N[C@@H](Cc1cnc[nH]1)C(=O)N[C@@H](CCC(=O)O)C(=O)N[C@@H](CC(C)C)C(=O)N[C@@H](C)C(=O)N[C@H](C(=O)N[C@@H](CC(C)C)C(=O)N1CCC[C@H]1C(=O)N[C@@H](CCCNC(=N)N)C(=O)N[C@H](C(=O)N[C@@H](CCC(=O)O)C(=O)N[C@H](C(=O)NCC(=O)N[C@@H](CO)C(=O)NCC(=O)N[C@@H](CO)C(=O)NCC(N)=O)[C@@H](C)O)[C@@H](C)O)[C@@H](C)O [compound 64, [N-terminal(C20 diacid-gGlu), des1, 30S, 31G, 33G]mimylin] ({C20 diacid-γGlu}-ASELSTAALGRLSAELHELATLPRTETGSGSG-NH2) | ≧200 μM | ≧200 μM | ≧200 μM | ≧200 μM | ≧200 μM | ≧200 μM | ≧200 μM | ≧200 μM |
| CC(C)C[C@H](NC(=O)[C@H](C)NC(=O)[C@H](C)NC(=O)[C@@H](NC(=O)[C@H](CO)NC(=O)[C@H](CC(C)C)NC(=O)[C@H](CCC(=O)O)NC(=O)[C@H](CO)NC(=O)[C@H](C)NC(=O)CC[C@H](NC(=O)CCCCCCCCCCCCCCCCCCC(=O)O)C(=O)O)[C@@H](C)O)C(=O)NCC(=O)N[C@@H](CCCNC(=N)N)C(=O)N[C@@H](CC(C)C)C(=O)N[C@@H](CO)C(=O)N[C@@H](C)C(=O)N[C@@H](CCC(=O)O)C(=O)N[C@@H](CC(C)C)C(=O)N[C@@H](Cc1cnc[nH]1)C(=O)N[C@@H](CCC(=O)O)C(=O)N[C@@H](CC(C)C)C(=O)N[C@@H](C)C(=O)N[C@H](C(=O)N[C@@H](CC(C)C)C(=O)N1CCC[C@H]1C(=O)N[C@@H](CCCNC(=N)N)C(=O)N[C@H](C(=O)N[C@@H](CCC(=O)O)C(=O)N[C@H](C(=O)NCC(=O)N[C@@H](CO)C(=O)NCC(=O)N[C@@H](CO)C(=O)N[C@@H](C)C(N)=O)[C@@H](C)O)[C@@H](C)O)[C@@H](C)O [compound 65, [N-terminal(C20 diacid-gGlu), des1, 30S, 31G, 33A]mimylin] ({C20 diacid-γGlu}-ASELSTAALGRLSAELHELATLPRTETGSGSA-NH2) | ≧200 μM | ≧200 μM | ≧200 μM | ≧200 μM | ≧200 μM | ≧200 μM | ≧200 μM | ≧200 μM |
| CC(C)C[C@H](NC(=O)[C@H](C)NC(=O)[C@H](C)NC(=O)[C@@H](NC(=O)[C@H](CO)NC(=O)[C@H](CC(C)C)NC(=O)[C@H](CCC(=O)O)NC(=O)[C@H](CO)NC(=O)[C@H](C)NC(=O)CC[C@H](NC(=O)CCCCCCCCCCCCCCCCCCC(=O)O)C(=O)O)[C@@H](C)O)C(=O)NCC(=O)N[C@@H](CCCNC(=N)N)C(=O)N[C@@H](CC(C)C)C(=O)N[C@@H](CO)C(=O)N[C@@H](CCC(=O)O)C(=O)N[C@@H](CCC(=O)O)C(=O)N[C@@H](CC(C)C)C(=O)N[C@@H](Cc1cnc[nH]1)C(=O)N[C@@H](CCC(=O)O)C(=O)N[C@@H](CC(C)C)C(=O)N[C@@H](C)C(=O)N[C@H](C(=O)N[C@@H](CC(C)C)C(=O)N1CCC[C@H]1C(=O)N[C@@H](CCCNC(=N)N)C(=O)N[C@H](C(=O)N[C@@H](CCC(=O)O)C(=O)N[C@H](C(=O)NCC(=O)N[C@@H](CO)C(=O)NCC(=O)N[C@@H](CO)C(=O)N1CCC[C@H]1C(N)=O)[C@@H](C)O)[C@@H](C)O)[C@@H](C)O [compound 66, [N-terminal(C20 diacid-gGlu), des1, 15E, 30S, 31G]mimylin] ({C20 diacid-γGlu}-ASELSTAALGRLSEELHELATLPRTETGSGSP-NH2) | ≧200 μM | ≧200 μM | ≧200 μM | ≧200 μM | ≧200 μM | ≧200 μM | ≧200 μM | ≧200 μM |

Other lines, results leading:

| Solubility (pH 3.0) | Solubility (pH 4.0) | Solubility (pH 5.0) | Solubility (pH 6.0) | Solubility (pH 6.5) | Solubility (pH 7.0) | Solubility (pH 7.5) | Solubility (pH 8.0) | SMILES |
| --- | --- | --- | --- | --- | --- | --- | --- | --- |
| ≧200 μM | ≧200 μM | ≧200 μM | ≧200 μM | ≧200 μM | ≧200 μM | ≧200 μM | ≧200 μM | CC(C)C[C@H](NC(=O)[C@H](C)NC(=O)[C@H](C)NC(=O)[C@@H](NC(=O)[C@H](CO)NC(=O)[C@H](CC(C)C)NC(=O)[C@H](CCC(=O)O)NC(=O)[C@H](CO)NC(=O)[C@H](C)NC(=O)CC[C@H](NC(=O)CCCCCCCCCCCCCCCCCCC(=O)O)C(=O)O)[C@@H](C)O)C(=O)NCC(=O)N[C@@H](CCCNC(=N)N)C(=O)N[C@@H](CC(C)C)C(=O)N[C@@H](CO)C(=O)N[C@@H](C)C(=O)N[C@@H](CCC(=O)O)C(=O)N[C@@H](CC(C)C)C(=O)N[C@@H](Cc1cnc[nH]1)C(=O)N[C@@H](CCC(=O)O)C(=O)N[C@@H](CC(C)C)C(=O)N[C@@H](C)C(=O)N[C@H](C(=O)N[C@@H](CC(C)C)C(=O)N1CCC[C@H]1C(=O)N[C@@H](Cc1cnc[nH]1)C(=O)N[C@H](C(=O)N[C@@H](CCC(=O)O)C(=O)N[C@H](C(=O)NCC(=O)N[C@@H](CO)C(=O)NCC(=O)N[C@@H](CO)C(=O)N1CCC[C@H]1C(N)=O)[C@@H](C)O)[C@@H](C)O)[C@@H](C)O [compound 73, [N-terminal(C20 diacid-gGlu), des1, 25H, 30S, 31G]mimylin] ({C20 diacid-γGlu}-ASELSTAALGRLSAELHELATLPHTETGSGSP-NH2) |
| ≧200 μM | ≧200 μM | ≧200 μM | ≧200 μM | ≧200 μM | ≧200 μM | ≧200 μM | ≧200 μM | CC(C)C[C@H](NC(=O)[C@H](C)NC(=O)[C@H](C)NC(=O)[C@@H](NC(=O)[C@H](CO)NC(=O)[C@H](CC(C)C)NC(=O)[C@H](CCC(=O)O)NC(=O)[C@H](CO)NC(=O)[C@H](C)NC(=O)CC[C@H](NC(=O)CCCCCCCCCCCCCCCCCCC(=O)O)C(=O)O)[C@@H](C)O)C(=O)NCC(=O)N[C@@H](CCCNC(=N)N)C(=O)N[C@@H](CC(C)C)C(=O)N[C@@H](CO)C(=O)N[C@@H](C)C(=O)N[C@@H](CCC(=O)O)C(=O)N[C@@H](CC(C)C)C(=O)N[C@@H](Cc1cnc[nH]1)C(=O)N[C@@H](CCC(=O)O)C(=O)N[C@@H](CC(C)C)C(=O)N[C@@H](C)C(=O)N[C@H](C(=O)N[C@@H](CC(C)C)C(=O)N1CCC[C@H]1C(=O)N[C@@H](CCCNC(=N)N)C(=O)N[C@H](C(=O)N[C@@H](CCC(=O)O)C(=O)N[C@H](C(=O)NCC(=O)N[C@H](C(=O)NCC(=O)N[C@H](C(=O)N1CCC[C@H]1C(N)=O)[C@@H](C)O)[C@@H](C)O)[C@@H](C)O)[C@@H](C)O)[C@@H](C)O [compound 74, [N-terminal(C20 diacid-gGlu), des1, 30T, 31G, 32T]mimylin] ({C20 diacid-γGlu}-ASELSTAALGRLSAELHELATLPRTETGTGTP-NH2) |
| ≧200 μM | ≧200 μM | ≧200 μM | ≧200 μM | ≧200 μM | ≧200 μM | ≧200 μM | ≧200 μM | CC(C)C[C@H](NC(=O)[C@H](C)NC(=O)[C@H](C)NC(=O)[C@@H](NC(=O)[C@H](CO)NC(=O)[C@H](CC(C)C)NC(=O)[C@H](CCC(=O)O)NC(=O)[C@H](CO)NC(=O)[C@H](C)NC(=O)CC[C@H](NC(=O)CCCCCCCCCCCCCCCCC(=O)O)C(=O)O)[C@@H](C)O)C(=O)NCC(=O)N[C@@H](CCCNC(=N)N)C(=O)N[C@@H](CC(C)C)C(=O)N[C@@H](CO)C(=O)N[C@@H](C)C(=O)N[C@@H](CCC(=O)O)C(=O)N[C@@H](CC(C)C)C(=O)N[C@@H](Cc1cnc[nH]1)C(=O)N[C@@H](CCC(=O)O)C(=O)N[C@@H](CC(C)C)C(=O)N[C@@H](C)C(=O)N[C@H](C(=O)N[C@@H](CC(C)C)C(=O)N1CCC[C@H]1C(=O)N[C@@H](CCCNC(=N)N)C(=O)N[C@H](C(=O)N[C@@H](CCC(=O)O)C(=O)N[C@H](C(=O)NCC(=O)N[C@@H](CO)C(=O)NCC(=O)N1CCC[C@H]1C(=O)N1CCC[C@H]1C(N)=O)[C@@H](C)O)[C@@H](C)O)[C@@H](C)O [compound 75, [N-terminal(C18 diacid-gGlu), des1, 30S, 31G, 32P]mimylin] ({C18 diacid-γGlu}-ASELSTAALGRLSAELHELATLPRTETGSGPP-NH2) |
